The values that follow come from patent publication US9227967B2, “Inhibitor compounds of semicarbazide-sensitive amine oxidases” (Proximagen Limited, priority 2010, dated 2016).

The target of this experiment is T1, human SSAO (Homo sapiens, UniProt Q16853).
T1 construct: made in house
T1 sequence (Q16853 29-763 limits assumed): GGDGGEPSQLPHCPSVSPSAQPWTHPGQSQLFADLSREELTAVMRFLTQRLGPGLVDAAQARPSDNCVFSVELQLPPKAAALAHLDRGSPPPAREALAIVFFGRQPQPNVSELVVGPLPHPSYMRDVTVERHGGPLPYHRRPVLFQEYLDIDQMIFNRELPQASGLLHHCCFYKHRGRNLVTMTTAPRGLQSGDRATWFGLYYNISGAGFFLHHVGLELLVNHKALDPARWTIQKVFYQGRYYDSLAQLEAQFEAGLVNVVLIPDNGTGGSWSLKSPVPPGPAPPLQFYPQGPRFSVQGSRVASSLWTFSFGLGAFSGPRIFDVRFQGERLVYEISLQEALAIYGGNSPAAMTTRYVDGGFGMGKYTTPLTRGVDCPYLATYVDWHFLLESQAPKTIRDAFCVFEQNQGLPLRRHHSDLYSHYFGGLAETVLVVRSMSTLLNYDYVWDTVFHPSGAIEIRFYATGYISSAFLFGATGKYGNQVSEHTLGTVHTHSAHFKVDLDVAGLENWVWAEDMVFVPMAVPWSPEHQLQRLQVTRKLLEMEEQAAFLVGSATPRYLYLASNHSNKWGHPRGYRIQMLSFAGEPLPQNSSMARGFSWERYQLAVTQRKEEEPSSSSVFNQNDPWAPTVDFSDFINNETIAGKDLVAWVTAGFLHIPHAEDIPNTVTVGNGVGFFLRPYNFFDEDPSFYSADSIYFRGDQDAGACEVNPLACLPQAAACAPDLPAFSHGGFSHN
Briefly: SSAO enzyme inhibition assay (benzylamine substrate; HRP-coupled hydrogen peroxide detection or 14C-benzaldehyde detection). It is filed as biochemical. As to conditions: purified recombinantly expressed human SSAO, benzylamine as substrate, r.t.; read-out: SSAO inhibitory activity IC50. The procedure, abridged: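 Purified recombinant human SSAO, pre-incubated ~15 min at r.t. with compound, then benzylamine added; final DMSO ≦2%. HRP-coupled Amplex format in 50 mM sodium phosphate pH 7.4: enzyme 1 μg/ml, benzylamine 100 μM (≈Km), fluorescence over 1-2 h; 14C format: enzyme 10 μg/ml, benzylamine 40 μM, 1 h. IC50 from four-parameter fit.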

Structures can show the parent of a compound that is named as a salt.

As usually defined, the IC50 is the concentration at which inhibition is half-maximal.

As to `Cc1ccc(-n2nc(C3COCCN3)c3ccncc32)cc1` (centres unmarked) [Compound 85, 3-[1-(4-Methylphenyl)-1H-pyrazolo[3,4-c]pyridin-3-yl]morpholine], the IC50 was in the range of 500 to 2500 nM. In the case of `Cc1ccc(-n2nc(C3CNCCO3)c3ccncc32)cc1` (centres unmarked) [Compound 86, 2-[1-(4-Methylphenyl)-1H-pyrazolo[3,4-c]pyridin-3-yl]morpholine], the IC50 lay in the range of 500 to 2500 nM. To `Cc1ccc(-n2nc(C3CCC(=O)NC3)c3ccncc32)cc1` (centres unmarked) [Compound 87, 5-[1-(4-Methylphenyl)-1H-pyrazolo[3,4-c]pyridin-3-yl]piperidin-2-one] belongs 100 to 500 nM. To `Fc1cncc2c1c(C1CCOCC1)nn2-c1ccc(Cl)cc1` [Compound 88, 1-(4-Chlorophenyl)-4-fluoro-3-(oxan-4-yl)-1H-pyrazolo[3,4-c]pyridine] belongs 500 to 2500 nM.

As for `Clc1ccc(-n2nc(C3CCN(Cc4cc[nH]n4)CC3)c3ccncc32)cc1` [Compound 89, 4-[1-(4-Chlorophenyl)-1H-pyrazolo[3,4-c]pyridin-3-yl]-1-(1H-pyrazol-3-ylmethyl)piperidine], the IC50 lay in the range of 100 to 500 nM. With `CCCCN1CCC(c2nn(-c3ccc(Cl)cc3)c3cnccc23)CC1` [Compound 90, 1-Butyl-4-[1-(4-chlorophenyl)-1H-pyrazolo[3,4-c]pyridin-3-yl]piperidine] the figure was 500 to 2500 nM. For the molecule `CN(C)C(=O)N1CCC(c2nn(-c3ccc(Cl)cc3)c3cnccc23)CC1` [Compound 91, 4-[1-(4-Chlorophenyl)-1H-pyrazolo[3,4-c]pyridin-3-yl]-N,N-dimethylpiperidine-1-carboxamide], the IC50 lay in the range of 100 to 500 nM. To `CCOC(=O)N1CCC(c2nn(-c3ccc(Cl)cc3)c3cnccc23)CC1` [Compound 92, Ethyl 4-[1-(4-chlorophenyl)-1H-pyrazolo[3,4-c]pyridin-3-yl]piperidine-1-carboxylate] belongs 100 to 500 nM. With `NCCC(=O)N1CCC(c2nn(-c3ccc(Cl)cc3)c3cnccc23)CC1` [Compound 93, 3-Amino-1-{4-[1-(4-chlorophenyl)-1H-pyrazolo[3,4-c]pyridin-3-yl]piperidin-1-yl}propan-1-one dihydrochloride] the figure was 100 to 500 nM; with `COc1cncc2c1c(C1CCOCC1)nn2-c1ccc(Cl)cc1` [Compound 94, 1-(4-Chlorophenyl)-4-methoxy-3-(oxan-4-yl)-1H-pyrazolo[3,4-c]pyridine], 500 to 2500 nM; with `Oc1cncc2c1c(C1CCOCC1)nn2-c1ccc(Cl)cc1` [Compound 95, 1-(4-Chlorophenyl)-3-(oxan-4-yl)-1H-pyrazolo[3,4-c]pyridin-4-ol], 100 to 500 nM. Consider `COc1cc2c(C3CCOCC3)nn(-c3ccc(Cl)cc3)c2cn1` [Compound 96, 1-(4-Chlorophenyl)-5-methoxy-3-(oxan-4-yl)-H-pyrazolo[3,4-c]pyridine], for which the IC50 is 500 to 2500 nM.

Regarding `Oc1cc2c(C3CCOCC3)nn(-c3ccc(Cl)cc3)c2cn1` [Compound 97, 1-(4-Chlorophenyl)-3-(oxan-4-yl)-1H,5H,6H-pyrazolo[3,4-c]pyridin-5-one], the IC50 was 100 to 500 nM. In the case of `Clc1ccc(-n2cc(C3CCOCC3)c3ncncc32)cc1` [Compound 98, 5-(4-Chlorophenyl)-7-(oxan-4-yl)-5H-pyrrolo[3,2-d]pyrimidine], the IC50 lay within 100 to 500 nM. For `Clc1ccc(-n2nc(C3CCOCC3)c3ncncc32)cc1` [Compound 99, 1-(4-Chlorophenyl)-3-(oxan-4-yl)-1H-pyrazolo[4,3-d]pyrimidine], the IC50 is 500 to 2500 nM.

Turning to `Fc1ccc(-n2cc(C3CCOCC3)c3ccncc32)cc1` [Compound 100, 1-(4-Fluorophenyl)-3-(oxan-4-yl)-1H-pyrrolo[2,3-c]pyridine], the IC50 lay within 100 to 500 nM. In the case of `Clc1ccc(-n2cc(C3CCOCC3)c3ccncc32)cc1` [Compound 101, 1-(4-Chlorophenyl)-3-(oxan-4-yl)-1H-pyrrolo[2,3-c]pyridine], the IC50 was under 100 nM. With `Cc1ccc(-n2cc(C3CCOCC3)c3ccncc32)cc1` [Compound 102, 1-(4-Methylphenyl)-3-(oxan-4-yl)-1H-pyrrolo[2,3-c]pyridine] the figure was under 100 nM; with `Clc1ccc(-n2cc(C3CCOCC3)c3ccncc32)nc1` [Compound 103, 5-Chloro-2-[3-(oxan-4-yl)-1H-pyrrolo[2,3-c]pyridin-1-yl]pyridine], 100 to 500 nM. To `Clc1ccc(-n2cc(N3CCOCC3)c3ccncc32)cc1` [Compound 104, 4-[1-(4-Chlorophenyl)-1H-pyrrolo[2,3-c]pyridin-3-yl]morpholine 2,2,2-trifluoroacetic acid] belongs under 100 nM; to `NCCCC(=O)N1CCC(c2cn(-c3ccc(Cl)cc3)c3cnccc23)CC1` [Compound 105, 2,2,2-Trifluoroacetic acid; 4-amino-1-{4-[1-(4-chlorophenyl)-1H-pyrrolo[2,3-c]pyridin-3-yl]piperidin-1-yl}butan-1-one], under 100 nM; to `NCCOC(=O)N1CCC(c2cn(-c3ccc(Cl)cc3)c3cnccc23)CC1` [Compound 106, 2-Aminoethyl 4-[1-(4-chlorophenyl)-1H-pyrrolo[2,3-c]pyridin-3-yl]piperidine-1-carboxylate], under 100 nM.

With `Cc1ccc(-n2c(C)c(C3=CCOCC3)c3ccncc32)cc1` [Compound 107, 3-(3,6-Dihydro-2H-pyran-4-yl)-2-methyl-1-(4-methylphenyl)-1H-pyrrolo[2,3-c]pyridine], the IC50 is under 100 nM.
